Measurements published in US9970929B2, “Voriconazole immunoassays” (ARK Diagnostics, Inc., priority 2013, dated 2018).
Blank lines part the entries; values can stand above or below the molecule they belong to.

How the values were obtained:
antibody Ab15461(P3) = assay: homogeneous enzyme immunoassay for voriconazole (conjugate VOR-8 G6PDH, HITACHI 917), calibration and crossreactivity; type: binding, rabbit; settings: for cross reaction with antibody Ab15461(P3), in words: summary of Tables 2 and 3
Description: Antibodies obtained using any of the disclosed techniques are screened or purified not only for their ability to react with voriconazole, but for a low cross-reactivity with potential interfering substances. “Cross-reactivity” may be determined in a quantitative immunoassay by establishing a standard curve using known dilutions of the target analyte, voriconazole. The standard curve is then used to calculate the apparent concentration of the interfering substance present in various known amounts in samples assayed under similar condition. The cross-reactivity can be calculated as the apparent concentration divided by the actual concentration multiplied by 100. A certain immunoassay for determining cross-reactivity is a homogeneous enzyme immunoassay using a wild type G6PDH as described in U.S. Pat. No. 3,817,837 or mutant G6PDH engineered to contain a cysteine per subunit as described in U.S. Pat. Nos. 6,033,890, 6,090,567 and 6,455,288. Furthermore, the cross-reactivity can be determined in the same type of immunoassay in which the antibody will ultimately be used.
Rabbit polyclonal antibody Ab15461(P3) was used to measure a substantial change in enzyme activity, generate a calibration curve, and evaluate assay precision, accuracy and specificity. The antibody was added into the antibody diluent to prepare the antibody reagent. The antibody reagent consisted of antibody as prepared above, buffer, stabilizers, preservatives, and the substrates for the enzyme conjugate nicotinamide adenine dinucleotide (NAD^+) and glucose-6-phosphate. Enzyme conjugate including compound VOR-8 G6PDH was added into the conjugate diluent to prepare the enzyme conjugate reagent. The enzyme conjugate reagent included the conjugate, buffer, stabilizers and preservatives. Enzyme conjugate VOR-8 G6PDH was used with rabbit polyclonal antibody Ab15461(P3) in examples below. This technique is generally applicable to produce polyclonal antibodies to voriconazole derivatives and assess their utility.
The voriconazole antibodies and enzyme conjugates may be used in a homogeneous assay format to detect voriconazole samples. An instrument useful to set up the assay is Hitachi 917 Analyzer (Roche). Voriconazole containing sample is incubated with antibody reagent followed by the addition of the enzyme conjugate reagent. The enzyme conjugate activity decreases upon binding to the antibody. The enzyme conjugate, which is not bound to the antibody, catalyzes the oxidation of glucose 6-phosphate (G6P). The oxidation of G6P is coupled with the reduction of NAD^+ to NADH, which can be measured at 340 nm. The change in the absorbance at 340 nm can be measured spectrophotometrically. The voriconazole concentration in a sample can be measured in terms of G6PDH activity. The increase in the rate at 340 nm is due to the formation of NADH and is proportional to the enzyme conjugate activity. An assay curve is generated using voriconazole added into serum negative for voriconazole. The assay rate increases with increasing the concentration of free drug in the sample.
Voriconazole was dissolved in methanol to give a stock solution of 1000 μg/mL. Pooled human serum was aliquoted in 10 mL portions. Voriconazole stock solution was added to the aliquots of human serum in preparing a series of known concentrations of voriconazole calibrators ranging from 0 to 16 μg/mL. The assay was performed using Enzyme Conjugate Reagent NB051:79 containing conjugate VOR-8 G6PDH and Antibody Reagent NB051:79 containing antibody Ab15461(P3). Calibration curves were generated on the HITACHI 917 automated clinical chemistry analyzer, as described in Example 10 by measuring each level in duplicate.
The major metabolic pathway of voriconazole is an enzymatic oxidation of voriconazole. […] The voriconazole metabolite, N-oxide voriconazole was tested in the immunoassay for potential cross reactivity. […]

antifungal activity = settings: in vitro, versus voriconazole; cited from earlier work
[1] = antifungal triazole 20 μg/mL added to voriconazole 10 μg/mL in human serum

Cross-reactivity (%) (antibody Ab15461(P3); [1]): 2.7%
cross reaction with antibody Ab15461(P3), in words (antibody Ab15461(P3)): did not significantly crossreact
SMILES: OC(Cn1cncn1)(Cn1cncn1)c1ccc(F)cc1F [Fluconazole]

Cross-reactivity (%) (antibody Ab15461(P3); [1]): 1.2%
cross reaction with antibody Ab15461(P3), in words (antibody Ab15461(P3)): did not significantly crossreact
SMILES: CCC(C)n1ncn(-c2ccc(N3CCN(c4ccc(OCC5COC(Cn6cncn6)(c6ccc(Cl)cc6Cl)O5)cc4)CC3)cc2)c1=O (stereo not drawn) [Itrconazole, Itraconazole]

Cross-reactivity (%) (antibody Ab15461(P3); [1]): −2.5%
cross reaction with antibody Ab15461(P3), in words (antibody Ab15461(P3)): did not significantly crossreact
SMILES: CC[C@@H]([C@H](C)O)n1ncn(-c2ccc(N3CCN(c4ccc(OC[C@@H]5CO[C@@](Cn6cncn6)(c6ccc(F)cc6F)C5)cc4)CC3)cc2)c1=O [Posaconazole]

Cross-reactivity (%) (antibody Ab15461(P3); Vor-N-Oxide 5 μg/mL added to voriconazole 10 μg/mL in human serum, 100 × (mean Test − mean Control) ÷ conc. tested): 6.7%
Cross-reactivity (%) (antibody Ab15461(P3); Vor-N-Oxide 15 μg/mL added to voriconazole 10 μg/mL in human serum): 6.7%
cross reaction with antibody Ab15461(P3), in words (antibody Ab15461(P3)): does not cross react significantly
SMILES: C[C@@H](c1nc[n+]([O-])cc1F)[C@](O)(Cn1cncn1)c1ccc(F)cc1F [Vor-N-Oxide, 4-((2S,3R)-3-(2,4-difluorophenyl)-3-hydroxy-4-(1H-1,2,4-triazol-1-yl)butan-2-yl)-5-fluoropyrimidine 1-oxide]
antifungal potency, fold less potent than the parent drug (antifungal activity): 100 fold

Reaction Rate (mA/min) Average of Duplicates (antibody Ab15461(P3); voriconazole 1.0 μg/mL calibrator in pooled human serum): 327.2 mA/min
Reaction Rate (mA/min) Average of Duplicates (antibody Ab15461(P3); voriconazole 2.0 μg/mL calibrator in pooled human serum): 337.4 mA/min
Reaction Rate (mA/min) Average of Duplicates (antibody Ab15461(P3); voriconazole 4.0 μg/mL calibrator in pooled human serum): 349.6 mA/min
Reaction Rate (mA/min) Average of Duplicates (antibody Ab15461(P3); voriconazole 8.0 μg/mL calibrator in pooled human serum): 362.4 mA/min
Reaction Rate (mA/min) Average of Duplicates (antibody Ab15461(P3); voriconazole 16.0 μg/mL calibrator in pooled human serum): 380.4 mA/min
SMILES: C[C@@H](c1ncncc1F)[C@](O)(Cn1cncn1)c1ccc(F)cc1F [Voriconazole, (2R,3S)-2-(2,4-difluorophenyl)-3-(5-fluoro-4-pyrimidinyl)-1-(1H-1,2,4-triazol-1-yl)-2-butanol]
